Experimental data: patent US20150274719A1, “AMINO-SUBSTITUTED IMIDAZO[1,2-A]PYRIDINECARBOXAMIDES AND THEIR USE” (BAYER PHARMA AKTIENGESELLSCHAFT, priority 2012, published 2015)
Structures can show the parent of a compound that is named as a salt.

Target: T1, recombinant guanylate cyclase reporter cell line (Rattus norvegicus, UniProt P19686+P20595)
T1 construct: expressed in transfected cells; host or cells: recombinant reporter cell line
T1 sequence (P19686 1-690): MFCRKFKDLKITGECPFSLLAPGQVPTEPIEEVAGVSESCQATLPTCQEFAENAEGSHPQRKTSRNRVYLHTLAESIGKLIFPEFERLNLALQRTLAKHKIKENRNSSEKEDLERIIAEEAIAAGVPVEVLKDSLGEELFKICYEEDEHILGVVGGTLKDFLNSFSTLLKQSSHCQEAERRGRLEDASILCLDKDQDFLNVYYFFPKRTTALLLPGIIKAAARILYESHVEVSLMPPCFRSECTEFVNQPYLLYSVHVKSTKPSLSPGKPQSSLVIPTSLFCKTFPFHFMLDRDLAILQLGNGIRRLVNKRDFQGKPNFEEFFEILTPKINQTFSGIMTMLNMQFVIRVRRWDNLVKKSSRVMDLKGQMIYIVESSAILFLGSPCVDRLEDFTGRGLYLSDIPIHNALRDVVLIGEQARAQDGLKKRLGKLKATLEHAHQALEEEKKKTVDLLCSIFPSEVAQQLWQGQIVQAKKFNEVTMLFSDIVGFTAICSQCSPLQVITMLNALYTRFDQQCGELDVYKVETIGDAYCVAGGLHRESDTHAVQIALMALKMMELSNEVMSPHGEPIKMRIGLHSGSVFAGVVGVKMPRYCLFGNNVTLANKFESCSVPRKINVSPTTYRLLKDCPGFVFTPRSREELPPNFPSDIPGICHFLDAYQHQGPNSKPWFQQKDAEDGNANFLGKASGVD
T1 sequence (P20595 1-619): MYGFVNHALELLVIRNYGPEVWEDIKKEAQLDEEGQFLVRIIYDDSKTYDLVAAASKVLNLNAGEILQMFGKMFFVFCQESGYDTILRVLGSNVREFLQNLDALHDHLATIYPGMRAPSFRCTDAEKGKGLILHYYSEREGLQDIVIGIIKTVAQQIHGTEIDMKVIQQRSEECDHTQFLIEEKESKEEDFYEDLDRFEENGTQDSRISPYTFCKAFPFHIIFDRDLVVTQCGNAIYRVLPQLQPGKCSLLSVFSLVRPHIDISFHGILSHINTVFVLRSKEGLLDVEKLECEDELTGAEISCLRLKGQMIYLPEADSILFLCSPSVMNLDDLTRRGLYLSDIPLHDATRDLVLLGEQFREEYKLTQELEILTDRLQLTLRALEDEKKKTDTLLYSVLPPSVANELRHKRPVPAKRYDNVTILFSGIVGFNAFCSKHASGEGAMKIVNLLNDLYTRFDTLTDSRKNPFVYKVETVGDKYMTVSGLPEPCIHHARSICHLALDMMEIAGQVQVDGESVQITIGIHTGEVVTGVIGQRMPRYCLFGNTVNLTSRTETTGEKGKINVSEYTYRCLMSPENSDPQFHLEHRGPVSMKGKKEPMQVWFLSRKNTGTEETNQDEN
Experiment: Action on recombinant guanylate cyclase reporter cell line
Format: cell-based
Conditions: in some cases mean values from individual determinations
Outline: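 MEC values, meaning the lowest concentration producing a detectable response, were taken from a recombinant cyclase reporter cell assay. Where repeated, individual determinations were averaged.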

Structure (SMILES) | MEC (minimal effective concentration) [µM]
Cc1cc(OCc2c(F)cccc2F)c2nc(C)c(C(=O)NC3CC(C)Nc4ccc(C(F)(F)F)nc43)n2c1 (single isomer, unassigned; ent-8) [Example 326, ent-8-[(2,6-Difluorobenzyl)oxy]-2,6-dimethyl-N-[2-methyl-6-(trifluoromethyl)-1,2,3,4-tetrahydro-1,5-naphthyridin-4-yl]imidazo[1,2-a]pyridine-3-carboxamide] | 0.30
Cc1nc2c(OCc3c(F)cccc3F)cccn2c1C(=O)NC1CC2CCCC(C1)N2C1CC1 (stereo not shown) [Example 1, N-(9-Cyclopropyl-9-azabicyclo[3.3.1]non-3-yl)-8-[(2,6-difluorobenzyl)oxy]-2-methylimidazo[1,2-a]pyridine-3-carboxamide] | 0.10
Cc1nc2c(OCc3c(F)cccc3F)cccn2c1C(=O)NC(CN)c1ccc(F)cc1F (stereo not drawn) [Example 21, ent-N-[2-Amino-1-(2,4-difluorophenyl)ethyl]-8-[(2,6-difluorobenzyl)oxy]-2-methylimidazo[1,2-a]-pyridine-3-carboxamide] | 0.30
Cc1cc(OCc2c(F)cccc2F)c2nc(C)c(C(=O)NC(C)(C)CN)n2c1 [Example 26, N-(1-amino-2-methylpropan-2-yl)-8-[(2,6-difluorobenzyl)oxy]-2,6-dimethylimidazo[1,2-a]-pyridine-3-carboxamide] | 0.30
Cc1nc2c(OCc3c(F)cccc3F)cccn2c1C(=O)NC1CC2CCCC(C1)N2 (stereo not shown) [Example 27, N-(9-azabicyclo[3.3.1]non-3-yl)-8-[(2,6-difluorobenzyl)oxy]-2-methylimidazo[1,2-a]-pyridine-3-carboxamide] | 1.00
Cc1nc2c(OCc3c(F)cccc3F)cccn2c1C(=O)NCC1(N)CC1 [Example 38, N-[(1-aminocyclopropyl)methyl]-8-[(2,6-difluorobenzyl)oxy]-2-methylimidazo[1,2-a]-pyridine-3-carboxamide] | 0.40
Cc1cc(OCc2c(F)cccc2F)c2nc(C)c(C(=O)NCC3(N)CC3)n2c1 [Example 40, N-[(1-aminocyclopropyl)methyl]-8-[(2,6-difluorobenzyl)oxy]-2,6-dimethylimidazo[1,2-a]-pyridine-3-carboxamide] | 0.10
Cc1nc2c(OCc3c(F)cccc3F)cccn2c1C(=O)NCC1(N)CCCC1 [Example 41, N-[(1-aminocyclopentyl)methyl]-8-[(2,6-difluorobenzyl)oxy]-2-methylimidazo[1,2-a]-pyridine-3-carboxamide] | 0.30
Cc1nc2c(OCC3CCCCC3)cccn2c1C(=O)NC(CN)c1ccc(F)cc1F (stereo not drawn) [Example 45, ent-N-[2-Amino-1-(2,4-difluorophenyl)ethyl]-8-(cyclohexylmethoxy)-2-methylimidazo[1,2-a]-pyridine-3-carboxamide] | 1.00
Cc1cc(OCc2c(F)cccc2F)c2nc(C)c(C(=O)NC(C)CN)n2c1 (stereo not drawn) [Example 48, ent-N-(1-Aminopropan-2-yl)-8-[(2,6-difluorobenzyl)oxy]-2,6-dimethylimidazo[1,2-a]pyridine-3-carboxamide] | 1.00
Cc1cc(OCc2c(F)cccc2F)c2nc(C)c(C(=O)NC(CN)c3ccc(F)c(F)c3)n2c1 (stereo not drawn) [Example 51, ent-N-[2-Amino-1-(3,4-difluorophenyl)ethyl]-8-[(2,6-difluorobenzyl)oxy]-2,6-dimethylimidazo-[1,2-a]pyridine-3-carboxamide] | 0.20
Cc1nc2c(OCc3c(F)cccc3F)cc(F)cn2c1C(=O)NC(CN)c1ccc(F)c(F)c1 (stereo not drawn) [Example 53, ent-N-[2-Amino-1-(3,4-difluorophenyl)ethyl]-8-[(2,6-difluorobenzyl)oxy]-6-fluoro-2-methyl-imidazo[1,2-a]pyridine-3-carboxamide] | 0.30
NCC(NC(=O)c1c(C2CC2)nc2c(OCc3c(F)cccc3F)cccn12)c1ccc(F)c(F)c1 (stereo not drawn) [Example 54, ent-N-[2-amino-1-(3,4-difluorophenyl)ethyl]-2-cyclopropyl-8-[(2,6-difluorobenzyl)oxy]-imidazo[1,2-a]pyridine-3-carboxamide] | 1.00
NCC(NC(=O)c1cnc2c(OCc3c(F)cccc3F)cccn12)c1ccc(F)c(F)c1 (stereo not drawn) [Example 55, ent-N-[2-amino-1-(3,4-difluorophenyl)ethyl]-8-[(2,6-difluorobenzyl)oxy]imidazo[1,2-a]pyridine-3-carboxamide dihydrochloride] | 2.00
Cc1nc2c(OCc3c(F)cccc3F)cccn2c1C(=O)N[C@H]1CCCNC1 [Example 60, 8-[(2,6-difluorobenzyl)oxy]-2-methyl-N-[(3S)-piperidin-3-yl]imidazo[1,2-a]pyridine-3-carboxamide dihydrochloride] | 0.30
Cc1nc2c(OCc3c(F)cccc3F)cccn2c1C(=O)N[C@H]1CCNC1 [Example 61, 8-[(2,6-Difluorobenzyl)oxy]-2-methyl-N-[(3S)-pyrrolidin-3-yl]imidazo[1,2-a]pyridine-3-carboxamide] | 3.00
CCCC[C@H](CN1CCOCC1)NC(=O)c1c(C)nc2c(OCc3c(F)cccc3F)cccn12 [Example 64, ent-8-[(2,6-Difluorobenzyl)oxy]-2-methyl-N-[(2R)-1-(morpholin-4-yl)hexan-2-yl]imidazo[1,2-a]-pyridine-3-carboxamide] | 0.30

Second part, the molecule after the results:

MEC (minimal effective concentration) [µM] | Structure (SMILES)
0.30 | Cc1nc2c(OCc3c(F)cccc3F)cc(Cl)cn2c1C(=O)NC(C)CN (stereo not drawn) [Example 22, ent-N-(1-aminopropan-2-yl)-6-chloro-8-[(2,6-difluorobenzyl)oxy]-2-methylimidazo[1,2-a]-pyridine-3-carboxamide]
0.65 | Cc1nc2c(OCc3c(F)cccc3F)cc(Cl)cn2c1C(=O)NC(C)(C)CN [Example 24, N-(1-amino-2-methylpropan-2-yl)-6-chloro-8-[(2,6-difluorobenzyl)oxy]-2-methylimidazo[1,2-a]pyridine-3-carboxamide]
0.30 | Cc1nc2c(OCc3c(F)cccc3F)cc(Cl)cn2c1C(=O)NCCC1(N)CCCCC1 [Example 33, N-[2-(1-Aminocyclohexyl)ethyl]-6-chloro-8-[(2,6-difluorobenzyl)oxy]-2-methylimidazo[1,2-a]-pyridine-3-carboxamide]
1.00 | CC[C@@H](N)CNC(=O)c1c(C)nc2c(OCc3c(F)cccc3F)cc(Cl)cn12 [Example 35, ent-N-[(2R)-2-aminobutyl]-6-chloro-8-[(2,6-difluorobenzyl)oxy]-2-methyl-imidazo[1,2-a]-pyridine-3-carboxamide]
1.00 | Cc1nc2c(OCc3c(F)cccc3F)cc(Cl)cn2c1C(=O)NCCN [Example 36, N-(2-aminoethyl)-6-chloro-8-[(2,6-difluorobenzyl)oxy]-2-methylimidazo[1,2-a]-pyridine-3-carboxamide]
1.00 | Cc1nc2c(OCc3c(F)cccc3F)cc(Cl)cn2c1C(=O)NCCCN [Example 37, N-(3-aminopropyl)-6-chloro-8-[(2,6-difluorobenzyl)oxy]-2-methylimidazo[1,2-a]pyridine-3-carboxamide]
0.10 | Cc1nc2c(OCc3c(F)cccc3F)cc(Cl)cn2c1C(=O)NCC1(N)CC1 [Example 39, N-[(1-aminocyclopropyl)methyl]-6-chloro-8-[(2,6-difluorobenzyl)oxy]-2-methylimidazo[1,2-a]pyridine-3-carboxamide]
1.00 | Cc1nc2c(OCc3c(F)cccc3F)cc(Cl)cn2c1C(=O)NCC1(N)CCCC1 [Example 42, N-[(1-aminocyclopentyl)methyl]-6-chloro-8-[(2,6-difluorobenzyl)oxy]-2-methylimidazo[1,2-a]pyridine-3-carboxamide]
